Reference: patent US11464750B2, “Anticancer agent and use thereof” (priority 2017, dated 2022)
“Also recorded” adds a separate entry of the source.

Assays:
Type in all cases: cell-based, human
PTEN protein = assay: Western blotting, PTEN protein, Panc-1 cells; conditions: 3 μM
Procedure: (§1) Specifically, first, JeKo-1 cells were cultured for 0 (control), 12, 24, and 48 hours in the presence of 0.5 μM of 3EZ,20Ac-ingenol. In addition, Panc-1 cells were cultured for 0 (control), 12, 24, and 48 hours in the presence of 3 μM of 3EZ,20Ac-ingenol.
Subsequently, abundances of PTEN protein in entire cell fractions, nuclear fractions, and cytoplasm fractions of the respective cells were analyzed by Western blotting using an anti-PTEN antibody (Santa Cruz). Furthermore, as a loading control, actin protein was detected using an anti-actin antibody (Sigma).

GSK-3β = assay: Western blotting, GSK-3β, Panc-1 cells; conditions: 3 μM, entire cell, 12 hours
Procedure: as §1
(§2) Subsequently, abundances of GSK-3β and p-GSK-3β in the respective cells were analyzed by Western blotting using an anti-GSK-3β antibody (Cell Signaling Technology) and an anti-p-GSK-3β (Ser^9) antibody (Cell Signaling Technology). Furthermore, as a loading control, actin protein was detected using an anti-actin antibody (Sigma).

p-GSK-3β (Ser^9) [1] = assay: Western blotting, p-GSK-3β (Ser9), JeKo-1 cells; conditions: 0.5 μM, entire cell
Procedure: as §1, §2

p-GSK-3β (Ser^9) [2] = assay: Western blotting, p-GSK-3β (Ser9), Panc-1 cells; conditions: 3 μM, entire cell
Procedure: as §1, §2

[3] = test system: phosphorylated Akt (Ser^473); assay: Western blotting, p-Akt (Ser473), BALL-1 cells; conditions: 0.5 μM
Procedure: The effect of 3EZ,20Ac-ingenol treatment on a PI3K/Akt signaling pathway was examined. Specifically, BALL-1 cells, TKG0210 cells, and TKG0377 cells were cultured for 48 hours in the presence of 3EZ,20Ac-ingenol at a final concentration of 0.5 μM, and by Western blotting using an anti-p-Akt (Ser^473) antibody (Cell Signaling Technology), phosphorylation of the 473th serine residue of an Akt protein in respective fractions of the entire cell, a nucleus, and a cytoplasm was analyzed. In addition, cells cultured in the absence of 3EZ,20Ac-ingenol were used as controls.
The effect of 3EZ,20Ac-ingenol treatment on PTEN, p-PTEN, and p-Akt of BALL-1 cells was examined. First, BALL-1 cells were cultured for 3, 6, 12, 24, and 48 hours in the presence of 3EZ,20Ac-ingenol at a final concentration of 0.5 μM, and by Western blotting using an anti-PTEN antibody (Santa Cruz), an anti-p-PTEN (Ser^380/Thr^382/383) antibody (Santa Cruz), and an anti-p-Akt (Ser^473) antibody (Cell Signaling Technology), abundances of PTEN, p-PTEN, and p-Akt in the entire cell fraction were analyzed. In addition, cells cultured in the absence of 3EZ,20Ac-ingenol were used as controls.
BALL-1 cells, TKG0210 cells, and TKG0377 cells were cultured for 24 and 48 hours in the presence of 3EZ,20Ac-ingenol at a final concentration of 0.5 μM, and abundances of p-Akt in the nuclear fraction and the cytoplasm fraction were analyzed by Western blotting. In addition, respective cells cultured in the absence of 3FZ,20Ac-ingenol were used as controls.
The effect of 3EZ,20Ac-ingenol treatment on PTEN and p-Akt was examined using siRNA against PTEN. First, BALL-1 cells were cultured for 12, 24, and 48 hours in the presence of 3EZ,20Ac-ingenol at a final concentration of 0.5 μM, and an abundance of p-Akt was analyzed by Western blotting in the same manner as in Experimental Example 11. Cells cultured in the absence of 3EZ,20Ac-ingenol were used as controls.
Subsequently, siRNA against PTEN (“ON-TARGET Plus Human PTEN (5728) siRNA-SMARTpool,” GE Dharmacon) was introduced into BALL-1 cells at a final concentration of 50 nM and incubated for 48 hours. Subsequently, a cell medium was replaced with a new medium and cultured for 12, 24, and 48 hours in the presence or absence of 3EZ,20Ac-ingenol at a final concentration of 0.5 μM, and by Western blotting using an anti-PTEN antibody (Santa Cruz) and an anti-p-Akt (Ser^473) antibody (Cell Signaling Technology), abundances of PTEN protein and p-Akt were analyzed.

Akt protein = assay: Western blotting, total amount of Akt, JeKo-1 cells; conditions: 0.5 μM, entire cell fraction
Procedure: as §1
(§3) Subsequently, by Western blotting using an anti-Akt antibody (Cell Signaling Technology) and an anti-p-Akt (Ser^473) antibody (Cell Signaling Technology), abundances of total amounts of Akt protein and p-Akt in the entire cell fractions, nuclear fractions, and cytoplasm fractions of the respective cells were analyzed. Furthermore, as a loading control, actin protein was detected using an anti-actin antibody (Sigma).

cyclin D1 = assay: Western blotting, cyclin D1, JeKo-1 cells; conditions: 0.5 μM; for abundance of cyclin D1: cytoplasm fraction
Procedure: as §1
Subsequently, abundances of cyclin D1 in entire cell fractions, nuclear fractions, and cytoplasm fractions of the respective cells were analyzed by Western blotting.

Panc-1 cells = assay: Cell Death Detection ELISA, Panc-1; conditions: 3 μM
Procedure: The induction of apoptosis by 3EZ,20Ac-ingenol treatment was examined by detecting histone-binding DNA fragmentation in the cytoplasm using a Cell Death Detection […] kit (Roche Applied Science).
Specifically, Panc-1 cells were inserted into tubes at 5×10^3 cells/well/100 μL, and incubated for 6, 12, 24, 48, and 72 hours in the presence of 3EZ,20Ac-ingenol at a final concentration of 3 μM. Subsequently, the respective cells were lysed in a lysis buffer. Subsequently, the supernatant of cell debris of the respective cells was collected and transferred to an ELISA plate, and an absorbance at a wavelength of 405 nm was measured to measure the induction of apoptosis.

p-Akt (Ser^473) = assay: Western blotting, p-Akt, Panc-1 cells; conditions: 3 μM
Procedure: as §1, §3

CCCCC/C=C\C=C\C(=O)O[C@H]1C(C)=C[C@]23C(=O)[C@@H](C=C(COC(C)=O)[C@@H](O)[C@]12O)[C@H]1[C@@H](C[C@H]3C)C1(C)C [3EZ,20Ac-ingenol, 3-O-(2′E,4′Z-decadienoyl)-20-O-acetylingenol]
abundance of PTEN protein (PTEN protein; cytoplasm fraction, 12 hours to 24 hours): an increase in abundance of PTEN protein in the cytoplasm fraction was observed | abundance of PTEN protein (PTEN protein; cytoplasm fraction, 48 hours): a decrease in abundance of PTEN protein was observed | abundance of PTEN protein (PTEN protein; entire cell fraction, 12 hours until 48 hours): an abundance of PTEN protein increased | abundance of PTEN protein (PTEN protein; nuclear fraction, 12 hours to 24 hours): an increase in abundance of PTEN protein in the nuclear fraction was observed | GSK-3β (an active type) (GSK-3β): an increase in GSK-3β was observed | p-GSK-3β (an inactive type) (p-GSK-3β (Ser^9) [1]): a decrease in p-GSK-3β (an inactive type) was observed | p-GSK-3β (an inactive type) (p-GSK-3β (Ser^9) [2]): a decrease in p-GSK-3β (an inactive type) was observed | abundance of p-Akt ([3]; 3 to 48 hours, entire cell fraction): down-regulation of p-Akt abundance was observed | abundance of p-Akt ([3]; 24 hours after the start of treatment (Experimental Example 16)): an abundance of p-Akt in the BALL-1 cells decreased | abundance of p-Akt ([3]; 24 hours, nuclear fraction): a moderate decrease in abundance of p-Akt was observed | abundance of p-Akt ([3]; 48 hours, cytoplasm fraction): slightly reduced; also recorded: a slight decrease in abundance of p-Akt was observed | abundance of p-Akt ([3]; 48 hours, entire cell): a decrease in abundance of phosphorylated Akt | abundance of p-Akt ([3]; 48 hours, nuclear fraction): significantly decreased; also recorded: a further decrease in abundance of p-Akt | abundance of p-Akt ([3]; cells with siRNA against PTEN introduced, after 12 hours): an increase in abundance of p-Akt was observed | abundance of p-Akt ([3]; cells with siRNA against PTEN introduced, after 24 hours and 48 hours): a decrease in abundance of p-Akt was observed | abundance of a total amount of Akt (Akt protein): almost no change was observed | abundance of cyclin D1 (cyclin D1; 12 to 48 hours): an increase in abundance of cyclin D1 was recognized | abundance of cyclin D1 (cyclin D1; thereafter): a decrease was recognized thereafter | expression level of cyclin D1 (cyclin D1; entire cell fraction, 12 to 48 hours): a decrease in expression level of cyclin D1 was observed | expression level of cyclin D1 (cyclin D1; nuclear fraction, 12 to 48 hours): a slight decrease in expression level of cyclin D1 was observed | DNA fragmentation (apoptosis), onset (Panc-1 cells): DNA fragmentation started 24 hours after the incubation | amount of fragmented DNA (apoptosis) (Panc-1 cells; 48 hours and 72 hours): the amount of fragmented DNA further increased | abundance of p-Akt (p-Akt (Ser^473); entire cell fraction, 12 hours and 24 hours): a temporary increase in abundances of both p-Akt and total amount of Akt was recognized | abundance of p-Akt (p-Akt (Ser^473); entire cell fraction, 48 hours): a decrease was observed again | abundance of p-Akt (p-Akt (Ser^473); nuclear fraction and cytoplasm fraction, 12 to 24 hours): an increase in abundance of both p-Akt and total amount of Akt was recognized | abundance of p-Akt (p-Akt (Ser^473); nuclear fraction and cytoplasm fraction, 48 hours): a decrease was observed 48 hours after the treatment
